Measured values reported in US12479927B2, “Compounds comprising cleavable linker and uses thereof” (priority 2017, dated 2025).

Each compound was assayed against Escherichia coli β-galactosidase (Escherichia coli, UniProt P00722) (assay: in vitro). Details: recombinant enzyme, pH 7.4.
Protocol: Method 1. Escherichia coli β-galactosidase
MPS used as a standard material was dissolved in PBS buffer solution to make 500 uM solution. […] This was followed by the addition of enzyme solution (14 μL of 1 mg/mL). When comparing with human β-galactosidase, 21 μL of enzyme solution (1 mg/mL) was added to achieve the same molar concentration, and the compound of the present invention and MPS each having an amount of 140 μL and […] of the buffer solution (pH 7.4) were mixed. The resulting reaction mixture was incubated at 37° C. Escherichia coli β-galactosidase enzyme (Sigma G4155) was used in the reaction mixture. The enzyme reaction solution was aliquoted at 0 min before the reaction and at a predetermined time after the reaction, respectively, wherein each aliquot was 70 μL. Then, the remaining compound of the present invention or MPS, and a material liberated by the enzyme reaction were quantitatively analyzed by HPLC.

Chain of Escherichia coli β-galactosidase (P00722 2-1024): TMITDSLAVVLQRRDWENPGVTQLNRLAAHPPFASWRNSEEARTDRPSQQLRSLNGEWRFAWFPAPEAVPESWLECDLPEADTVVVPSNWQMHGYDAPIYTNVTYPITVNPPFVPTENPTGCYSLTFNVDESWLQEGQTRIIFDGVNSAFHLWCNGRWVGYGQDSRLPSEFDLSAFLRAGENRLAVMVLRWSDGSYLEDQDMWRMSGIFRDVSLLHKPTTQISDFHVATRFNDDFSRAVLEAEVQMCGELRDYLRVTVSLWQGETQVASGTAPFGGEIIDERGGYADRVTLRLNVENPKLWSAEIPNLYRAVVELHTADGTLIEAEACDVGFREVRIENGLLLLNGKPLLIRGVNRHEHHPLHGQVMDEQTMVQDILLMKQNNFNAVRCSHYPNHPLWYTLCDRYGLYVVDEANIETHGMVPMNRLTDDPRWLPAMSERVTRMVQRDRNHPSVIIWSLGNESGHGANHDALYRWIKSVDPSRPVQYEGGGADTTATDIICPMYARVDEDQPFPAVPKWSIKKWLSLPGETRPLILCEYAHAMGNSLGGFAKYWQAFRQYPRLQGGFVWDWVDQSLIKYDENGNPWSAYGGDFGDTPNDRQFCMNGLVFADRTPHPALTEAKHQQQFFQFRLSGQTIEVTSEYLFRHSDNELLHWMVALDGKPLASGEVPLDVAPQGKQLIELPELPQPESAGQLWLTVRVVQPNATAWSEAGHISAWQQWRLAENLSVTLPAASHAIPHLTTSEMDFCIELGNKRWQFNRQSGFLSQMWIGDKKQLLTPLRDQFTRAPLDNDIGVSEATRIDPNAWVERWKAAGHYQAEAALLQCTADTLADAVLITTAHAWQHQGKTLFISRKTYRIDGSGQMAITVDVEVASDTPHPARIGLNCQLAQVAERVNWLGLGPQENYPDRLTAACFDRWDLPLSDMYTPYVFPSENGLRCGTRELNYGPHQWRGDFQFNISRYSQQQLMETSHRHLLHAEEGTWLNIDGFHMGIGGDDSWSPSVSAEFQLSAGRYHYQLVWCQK

| SMILES | half-life at 100 μM [min] |
| --- | --- |
| CSCC[C@H](NC(=O)[C@H](Cc1ccccc1)NC(=O)CNC(=O)CNC(=O)[C@@H](N)Cc1ccc(OS(=O)(=O)Oc2ccccc2OC2O[C@H](CO)[C@H](O)[C@H](O)[C@H]2O)cc1)C(=O)O (some centres unmarked) [Compound B-9] | < 5 |
| Nc1nc(OCc2ccc(OS(=O)(=O)Oc3ccccc3OC3O[C@H](CO)[C@H](O)[C@H](O)[C@H]3O)cc2)c2ncn([C@@H]3O[C@H](CO)C(O)[C@@H]3O)c2n1 (some centres unmarked) [Compound A-4] | < 5 |
| O=C(OCCc1cccnc1)OCc1ccc(OS(=O)(=O)Oc2ccccc2O[C@@H]2O[C@H](CO)[C@H](O)[C@H](O)[C@H]2O)cc1 [Compound A-9] | < 5 |
| CC/C(=C(\c1ccccc1)c1ccc(OCC[N+](C)(C)Cc2c(OC)cc(OS(=O)(=O)Oc3cc(C(=O)NCCOCCOCCOCCN=[N+]=[N-])ccc3OC3O[C@H](CO)[C@H](O)[C@H](O)[C@H]3O)cc2OC)cc1)c1ccccc1 (some centres unmarked) [Compound B-11] | < 5 |
| C[C@]12CC[C@@H]3c4ccc(OS(=O)(=O)Oc5cc(C(=O)NCCOCCOCCOCCN=[N+]=[N-])ccc5O[C@@H]5O[C@H](CO)[C@H](O)[C@H](O)[C@H]5O)cc4CC[C@H]3[C@@H]1CC[C@@H]2O [Compound B-6] | < 5 |
| CC(C)(C)OC(=O)NCCN(CC(=O)O)C(=O)Cn1cnc2c(OCc3ccc(OS(=O)(=O)Oc4ccccc4OC4O[C@H](CO)[C@H](O)[C@H](O)[C@H]4O)cc3)nc(N)nc21 (some centres unmarked) [Compound A-18] | < 5 |
| CC(C)(C)OC(=O)NC(Cc1ccc(OS(=O)(=O)Oc2cc(CCC(=O)NCCOCCOCCOCCN=[N+]=[N-])ccc2OC2O[C@H](CO)[C@H](O)[C@H](O)[C@H]2O)cc1)C(=O)O (some centres unmarked) [Compound A-6] | 4.6 ± 1.72 |
| COc1ccc(/C=C\c2cc(OC)c(OC)c(OC)c2)cc1OS(=O)(=O)Oc1cc(C(=O)NCCOCCOCCOCCN=[N+]=[N-])ccc1O[C@@H]1O[C@H](CO)[C@H](O)[C@H](O)[C@H]1O [Compound B-7] | < 5 |
| CC(OCN(CCN(C)C)C(=O)OCc1ccc(OS(=O)(=O)Oc2ccccc2OC2O[C@H](CO)[C@H](O)[C@H](O)[C@H]2O)cc1)c1ccccc1 (some centres unmarked) [Compound A-17] | < 1 |
| O=C(Cc1cccnc1)OCc1ccc(OS(=O)(=O)Oc2ccccc2O[C@@H]2O[C@H](CO)[C@H](O)[C@H](O)[C@H]2O)cc1 [Compound A-10] | < 5 |
| CCC(C)[C@H]([C@H](CC(=O)N1CCC[C@@H]1[C@@H](OC)[C@H](C)C(=O)NC(Cc1ccccc1)C(=O)O)OC)N(C)C(=O)[C@H](NC(=O)[C@@H](C(C)C)N(C)C(=O)OCc1ccc(OS(=O)(=O)Oc2cc(C(=O)NCCOCCOCCOCCN=[N+]=[N-])ccc2O[C@H]2O[C@H](CO)[C@H](O)[C@H](O)[C@H]2O)cc1)C(C)C (some centres unmarked) [Compound B-3] | < 10 |
| CC(C)(C)OC(=O)NC(Cc1ccc(OS(=O)(=O)Oc2cc(C(=O)NCCOCCOCCOCCN=[N+]=[N-])ccc2O[C@@H]2O[C@H](CO)[C@H](O)[C@H](O)[C@H]2O)cc1)C(=O)O (some centres unmarked) [Compound A-2] | 3.71 ± 0.22 |
| Cc1cn([C@H]2CC(O)[C@@H](CO)O2)c(=O)nc1OCc1ccc(OS(=O)(=O)Oc2ccccc2O[C@@H]2O[C@H](CO)[C@H](O)[C@H](O)[C@H]2O)cc1 (some centres unmarked) [Compound A-13] | < 5 |
| CC(C)(C)OC(=O)NC(Cc1ccc(OS(=O)(=O)Oc2cc3ccccc3cc2O[C@@H]2O[C@H](CO)[C@H](O)[C@H](O)[C@H]2O)cc1)C(=O)O (some centres unmarked) [Compound A-12] | < 5 |
